Measurements taken from patent publication US20160338992A1, “COMPOSITE COMPRISING 3'-HYDROXYGENISTEIN AND USE FOR INHIBITION OF MELANOGENESIS” (BIO-JOURDENESS INTERNATIONAL GROUP CO., LTD., priority 2015, published 2016).

What was measured:
tyrosinase [1] = conditions: cited from earlier work
tyrosinase [2] = assay: Effect on tyrosinase activity (L-DOPA to dopachrome, absorbance at 475 nm); format: biochemical; conditions: for effect on tyrosinase activity (FIG. 2): 10-40 μM
Method: Tyrosinase plays an important role on melanogenesis. Thus the effect of 3′-hydroxygenistein on tyrosinase is detected. First dissolve 1 μL 3′-hydroxygenistein in DMSO (dimethyl sulfoxide) and mixed with 5 μL tyrosinase in a 94 μL, 50 mM PBS (pH 6.8). Add 0.9 mL, 2.5 mM L-DOPA (dissolved in 50 mM PBS, pH 6.8) into the mixture and react at 25° C. for 10 minutes.

B16 melanoma 4A5 cells [3] = assay: Melanin content in IBMX-stimulated cells; format: cell-based, mouse; conditions: 400 μM IBMX, 2 days; for effect on melanogenesis (FIG. 4): 10 μM and 20 μM
Method: In this experiment, 3-isobutyl-1-methylxanthine (IBMX) is used as a melanogenic-stimulating agent while genistein and danazol with inhibitory effect on melanogenesis are used as positive controls. The B 16 melanoma 4A5 cells are cultured in DMEM containing 10% (v/v) fetal bovine serum (FBS) in a 5% CO2 humidified incubator at 37° C. Then seed cells in a 24-well plate with proper density. After one day, the cells are treated with 5 μM, 10 μM, and 20 μM 3′-hydroxygenistein respectively in the presence of 400 μM IBMX and cultured for 2 days. Then collect and wash the cells with PBS (Phosphate Buffered Saline) buffer twice. The cell pellets are dissolved in lysis buffer containing 20 mM trisodium phosphate (pH6.8) and 1% Triton X-100. After centrifugation at 15,000×g for 15 minutes, melanin pellets are dissolved in 1N NaOH containing 20% DMSO at 95° C. for 1 hour. Use spectrophotometer ((U-5100; Hitachi, Japan) to detect absorbance of melanin at 490 nm. The melanin content is expressed as percentage of the control group (IBMX group).

melanin cells = conditions: 30 μM to 60 μM; cited from earlier work
B16 melanoma 4A5 cells [4] = assay: Cell viability by MTT assay; format: cell-based, mouse; conditions: 48 hours
Method: In order to confirm a non-cytotoxic concentration range of 3′-hydroxygenistein, MTT and crystal violet staining assays are used to detect cell viability of 3′-hydroxygenistein. A mouse melanoma cell line (B16 melanoma 4A5 obtained from bioresource Collection and Research Center, Food Industry Research and Development Institute) is cultured in DMEM (Dulbecco's Modified Eagle Medium) containing 10% (v/v) fetal bovine serum (FBS) in a 5% CO2 humidified incubator for 24 hours. The B16 melanoma 4A5 cells are treated with 3′-hydroxygenistein for 48 hours. Then remove the culture medium, add 1 mg/mL MTT dissolved in PBS and incubate for 2 hours. Next remove MTT solution and add DMSO. At last, use spectrophotometer ((U-5100; Hitachi, Japan) to detect absorbance of dissolved formazan crystals at 475 nm. The cell viability is expressed as percentage of control (% of control).

O=c1c(-c2ccc(O)cc2)coc2cc(O)c(O)cc12 [6-OHDe, 6,7,4′-trihrdroxyisoflavone]
tyrosinase inhibitory activity, times stronger than glycitein (tyrosinase [1]; Taiwanese Pat. No. 1312686): 25 times
tyrosinase inhibition activity (literature) (tyrosinase [1]): have tyrosinase inhibition activity

O=c1c(-c2ccc(O)cc2)coc2cc(O)cc(O)c12 [genistein]
effect on tyrosinase activity (FIG. 2) (tyrosinase [2]): no tyrosinase inhibitory activity
effect on melanogenesis (FIG. 4) (B16 melanoma 4A5 cells [3]): no inhibitory effect on melanogenesis
effect on melanin production (literature) (melanin cells): induce melanin cells to produce more melanin

O=c1c(-c2ccc(O)cc2)coc2c(O)c(O)cc(O)c12 [8-hydroxygenistein, 5,7,8,4′-tetrahydroxyisoflavone]
tyrosinase inhibitory activity, times stronger than genistein (tyrosinase [1]; Taiwanese Pat. No. 1312686): 90 times

O=c1c(-c2ccc(O)cc2)coc2c(O)c(O)ccc12 [8-OHDe, 7,8,4′-trihrdroxyisoflavone]
tyrosinase inhibitory activity, times stronger than daidzein (tyrosinase [1]; Taiwanese Pat. No. 1312686): 30 times
tyrosinase inhibition activity (literature) (tyrosinase [1]): have tyrosinase inhibition activity

O=c1c(-c2ccc(O)cc2)coc2cc(O)ccc12 [daidzein]
tyrosinase inhibition activity (literature) (tyrosinase [1]): doesn't have such activity

O=c1c(-c2ccc(O)c(O)c2)coc2cc(O)cc(O)c12 [3′-hydroxygenistein]
effect on tyrosinase activity (FIG. 2) (tyrosinase [2]): inhibits tyrosinase activity in a dose-dependent manner
IC50 (tyrosinase [2]; L-DOPA substrate, 25° C., 10 minutes, pH 6.8, read-out: half-inhibitory concentration (IC50) in inhibiting tyrosinase): 15.9 µM
tyrosinase inhibitory activity, times stronger than kojic acid (tyrosinase [2]; ratio of IC50 values, kojic acid as the standard): 11 times
cytotoxicity (cell survival rate, FIG. 3) (B16 melanoma 4A5 cells [4]; 40 μM): shows cytotoxicity
cytotoxicity (cell survival rate, FIG. 3) (B16 melanoma 4A5 cells [4]; concentration between 10 μM and 20 μM): no cytotoxicity
effect on melanogenesis (FIG. 4) (B16 melanoma 4A5 cells [3]): show inhibition of melanogenesis
melanin content, percentage of the control group (IBMX group) (B16 melanoma 4A5 cells [3]; 20 μM): 50.5%
inhibitory effect on melanogenesis compared with danazol (B16 melanoma 4A5 cells [3]): better than danazol
